Key:
Assay type in all cases: in vivo
Kochia (Kochia scoparia) [1] = experiment: Test A preemergence
How it was run: (§1)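 In a loam soil and sand blend, planted seeds got a preemergence directed soil spray, and young plants at the one- to two-leaf stage, 2–10 cm high, got a postemergence application; ~10 d greenhouse hold; injury rated visually, 0 = none, 100 = complete control.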

[2] = test system: barnyardgrass (Echinochloa crus-galli); experiment: Test A preemergence
How it was run: as §1

[3] = test system: giant foxtail (Setaria faberii); experiment: Test A preemergence
How it was run: as §1

[4] = test system: pigweed (Amaranthus retroflexus); experiment: Test A preemergence
[5] = test system: ragweed (common ragweed, Ambrosia elatior); experiment: Test A preemergence
How it was run: as §1

[6] = test system: ryegrass, Italian (Italian ryegrass, Lolium multiflorum); experiment: Test A preemergence
How it was run: as §1

[7] = test system: Galium (catchweed bedstraw, Galium aparine); experiment: Test A postemergence; settings: postemergence, 0 to 100 scale (0 no effect, 100 complete control)
How it was run: as §1

Kochia (Kochia scoparia) [8] = experiment: Test A postemergence; settings: postemergence, 0 to 100 scale (0 no effect, 100 complete control)
How it was run: as §1

[9] = test system: barnyardgrass (Echinochloa crus-galli); experiment: Test A postemergence; settings: postemergence, 0 to 100 scale (0 no effect, 100 complete control)
How it was run: as §1

[10] = test system: blackgrass (Alopecurus myosuroides); experiment: Test A postemergence; settings: postemergence, 0 to 100 scale (0 no effect, 100 complete control)
How it was run: as §1

corn (Zea mays) = experiment: Test A postemergence; settings: postemergence, 0 to 100 scale (0 no effect, 100 complete control)
How it was run: as §1

[11] = test system: giant foxtail (Setaria faberii); experiment: Test A postemergence; settings: postemergence, 0 to 100 scale (0 no effect, 100 complete control)
How it was run: as §1

[12] = test system: pigweed (Amaranthus retroflexus); experiment: Test A postemergence; settings: postemergence, 0 to 100 scale (0 no effect, 100 complete control)
How it was run: as §1

[13] = test system: ragweed (common ragweed, Ambrosia elatior); experiment: Test A postemergence; settings: postemergence, 0 to 100 scale (0 no effect, 100 complete control)
How it was run: as §1

[14] = test system: ryegrass, Italian (Italian ryegrass, Lolium multiflorum); experiment: Test A postemergence; settings: postemergence, 0 to 100 scale (0 no effect, 100 complete control)
How it was run: as §1

[15] = test system: wheat (Triticum aestivum); experiment: Test A postemergence; settings: postemergence, 0 to 100 scale (0 no effect, 100 complete control)
How it was run: as §1

[16] = test system: barnyardgrass (Echinochloa crus-galli); experiment: Test B flooded paddy test; settings: Flood, 250 g ai/ha; 0 to 100 scale where 0 is no effect and 100 is complete control; 13 to 15 d
How it was run: (§2)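 Greenhouse paddy pots with 2-leaf stage plants received compound by direct addition to floodwater 3 cm deep, kept at that level. Scored visually at 13–15 d versus controls (0 no effect; 100 complete control).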

[17] = test system: ducksalad (Heteranthera limosa); experiment: Test B flooded paddy test; settings: Flood, 250 g ai/ha; 0 to 100 scale where 0 is no effect and 100 is complete control; 13 to 15 d
How it was run: as §2

rice (Oryra sativa) = experiment: Test B flooded paddy test; settings: Flood, 250 g ai/ha; 0 to 100 scale where 0 is no effect and 100 is complete control; 13 to 15 d
How it was run: as §2

[18] = test system: sedge, umbrella (small-flower umbrella sedge, Cyperus difformis); experiment: Test B flooded paddy test; settings: Flood, 250 g ai/ha; 0 to 100 scale where 0 is no effect and 100 is complete control; 13 to 15 d
How it was run: as §2

[19] = 125 g ai/ha, Preemergence, visual injury after approximately 10 d, 0 to 100 scale where 0 is no effect and 100 is complete control
[20] = 500 g ai/ha, preemergence, 0 to 100 scale, 0 = no effect, 100 = complete control
[21] = 125 g ai/ha, visual rating after approx. 10 d
[22] = 500 g ai/ha, visual injury, approx. 10 d

SMILES	Plant response rating, Kochia (Kochia (Kochia scoparia) [1]; [19])	Plant response rating, Kochia (Kochia (Kochia scoparia) [1]; [20])	Plant response rating, Barnyardgrass [2, 19]	Plant response rating, Barnyardgrass [2, 20]	Plant response rating, Foxtail, Giant [3, 19]	Plant response rating, Foxtail, Giant [3, 20]	Plant response rating, Pigweed [4, 19]	Plant response rating, Pigweed [4, 20]	Plant response rating, Ragweed [5, 19]	Plant response rating, Ragweed [5, 20]	Plant response rating, Ryegrass, Italian [6, 19]	Plant response rating, Ryegrass, Italian [6, 20]	Plant response rating, Galium [7, 21]	Plant response rating, Galium [7, 22]	Plant response rating, Kochia (Kochia (Kochia scoparia) [8]; [21])	Plant response rating, Kochia (Kochia (Kochia scoparia) [8]; [22])	Plant response rating, Barnyardgrass [9, 21]	Plant response rating, Barnyardgrass [9, 22]	Plant response rating, Blackgrass [10, 21]	Plant response rating, Blackgrass [10, 22]	other results
Cc1ccc(C2CNC(=O)C2C(=O)Nc2cccc(F)c2F)cc1C(F)(F)F (racemic) [Compound 679]	30	60	80	90	90	90	0	40	0	30	20	30	40	60	0	0	40	70	30	60	Plant response rating, Corn (corn (Zea mays); [21]): 20; Plant response rating, Corn (corn (Zea mays); [22]): 50; Plant response rating, Foxtail, Giant [11, 21]: 0; Plant response rating, Foxtail, Giant [11, 22]: 30; Plant response rating, Pigweed [12, 21]: 0; Plant response rating, Pigweed [12, 22]: 40; Plant response rating, Ragweed [13, 21]: 0; Plant response rating, Ragweed [13, 22]: 20; Plant response rating, Ryegrass, Italian [14, 21]: 0; Plant response rating, Ryegrass, Italian [14, 22]: 20; Plant response rating, Wheat [15, 21]: 0; Plant response rating, Wheat [15, 22]: 20; Plant response rating, Barnyardgrass [16]: 30; Plant response rating, Ducksalad [17]: 55; Plant response rating, Rice (rice (Oryra sativa)): 0; Plant response rating, Sedge, Umbrella [18]: 0
Cc1ccc(C2CNC(=O)C2C(=O)Nc2ccc(F)c(F)c2F)cc1C(F)(F)F (racemic) [Compound 681]	20	60	70	80	90	90	0	30	0	0	0	30	30	50	0	40	40	90	0	30	Plant response rating, Corn (corn (Zea mays); [21]): 0; Plant response rating, Corn (corn (Zea mays); [22]): 30; Plant response rating, Foxtail, Giant [11, 21]: 0; Plant response rating, Foxtail, Giant [11, 22]: 30; Plant response rating, Pigweed [12, 21]: 0; Plant response rating, Pigweed [12, 22]: 0; Plant response rating, Ragweed [13, 21]: 0; Plant response rating, Ragweed [13, 22]: 0; Plant response rating, Ryegrass, Italian [14, 21]: 0; Plant response rating, Ryegrass, Italian [14, 22]: 20; Plant response rating, Wheat [15, 21]: 0; Plant response rating, Wheat [15, 22]: 0; Plant response rating, Barnyardgrass [16]: 35; Plant response rating, Ducksalad [17]: 25; Plant response rating, Rice (rice (Oryra sativa)): 0; Plant response rating, Sedge, Umbrella [18]: 0

— patent publication US12077503B2, “Substituted cyclic amides and their use as herbicides” (FMC CORPORATION, priority 2015, dated 2024)
